Where a name gives a salt, the structure may show the parent alone.
Legend:
Experiment in all cases: normalized area under the dose-response curve (viability relative to DMSO control) (fraction); higher = less sensitive (more viable cells)
Settings in all cases: exposure time not given
[1] = system: OCI-MY5 (cancer type: MM)
Experimental: (§1)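 25 myeloma and 15 non-Hodgkin lymphoma cell lines were exposed to each of 76 drugs as 7-point log dilutions (0.01 nM–10 µM) in duplicate. Viability was read with CellTiter-Glo and normalised to DMSO (0.1%) and staurosporine (10 µM) plate controls. Normalised AUC was calculated by the trapezoidal method relative to the negative control.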

[2] = system: OCI-MY5/Vec (cancer type: MM)
Experimental: as §1

[3] = system: OCI-MY5/CRBN (cancer type: MM)
Experimental: as §1

OPM2 (cancer type: MM) = system: OPM2 (cancer type: MM)
Experimental: as §1

JJN3 (cancer type: MM) = system: JJN3 (cancer type: MM)
Experimental: as §1

MM1.R (cancer type: MM) = system: MM1.R (cancer type: MM)
Experimental: as §1

[4] = system: OCI-MY7 (cancer type: MM)
Experimental: as §1

[5] = system: HuT 78 (cancer type: TCL)
Experimental: as §1

[6] = system: SR-786 (cancer type: TCL)
Experimental: as §1

FR4 (cancer type: MM) = system: FR4 (cancer type: MM)
Experimental: as §1

Se-Ax (cancer type: TCL) = system: Se-Ax (cancer type: TCL)
Experimental: as §1

KMS34 (cancer type: MM) = system: KMS34 (cancer type: MM)
Experimental: as §1

KMS26 (cancer type: MM) = system: KMS26 (cancer type: MM)
Experimental: as §1

[7] = system: KMS12PE (cancer type: MM)
Experimental: as §1

[8] = system: SU-DHL1 (cancer type: TCL)
Experimental: as §1

[9] = system: OCI-LY3 (cancer type: DLBCL)
Experimental: as §1

L363 (cancer type: MM) = system: L363 (cancer type: MM)
Experimental: as §1

[10] = system: Granta-519 (cancer type: Mantle)
Experimental: as §1

AMO1 (cancer type: MM) = system: AMO1 (cancer type: MM)
Experimental: as §1

[11] = system: NCI-H929 (cancer type: MM)
Experimental: as §1

[12] = system: JVM2 (cancer type: Mantle)
Experimental: as §1

U266 (cancer type: MM) = system: U266 (cancer type: MM)
Experimental: as §1

[13] = system: RPMI 8226 (cancer type: MM)
Experimental: as §1

LP1 (cancer type: MM) = system: LP1 (cancer type: MM)
Experimental: as §1

[14] = system: OCI-LY19 (cancer type: DLBCL)
Experimental: as §1

KMS11 (cancer type: MM) = system: KMS11 (cancer type: MM)
Experimental: as §1

[15] = system: OCI-LY1 (cancer type: DLBCL)
Experimental: as §1

[16] = system: Karpas-299 (cancer type: TCL)
Experimental: as §1

XG2 (cancer type: MM) = system: XG2 (cancer type: MM)
Experimental: as §1

KMS18 (cancer type: MM) = system: KMS18 (cancer type: MM)
Experimental: as §1

SKMM2 (cancer type: MM) = system: SKMM2 (cancer type: MM)
Experimental: as §1

My-La (cancer type: TCL) = system: My-La (cancer type: TCL)
Experimental: as §1

[17] = system: KMS28PE (cancer type: MM)
Experimental: as §1

[18] = system: SU-DHL2 (cancer type: DLBCL)
Experimental: as §1

[19] = system: KMS28BM (cancer type: MM)
Experimental: as §1

[20] = system: Mino (cancer type: Mantle)
Experimental: as §1

EJM (cancer type: MM) = system: EJM (cancer type: MM)
Experimental: as §1

MM1.S (cancer type: MM) = system: MM1.S (cancer type: MM)
Experimental: as §1

[21] = system: SU-DHL6 (cancer type: DLBCL)
Experimental: as §1

[22] = system: JeKo-1 (cancer type: Mantle)
Experimental: as §1

Row | SMILES | normalized area under the dose-response curve [1] | normalized area under the dose-response curve [2] | normalized area under the dose-response curve [3] | normalized area under the dose-response curve (OPM2 (cancer type: MM)) | normalized area under the dose-response curve (JJN3 (cancer type: MM)) | normalized area under the dose-response curve (MM1.R (cancer type: MM)) | normalized area under the dose-response curve [4] | normalized area under the dose-response curve [5] | normalized area under the dose-response curve [6] | normalized area under the dose-response curve (FR4 (cancer type: MM)) | normalized area under the dose-response curve (Se-Ax (cancer type: TCL)) | normalized area under the dose-response curve (KMS34 (cancer type: MM)) | normalized area under the dose-response curve (KMS26 (cancer type: MM)) | normalized area under the dose-response curve [7] | normalized area under the dose-response curve [8] | normalized area under the dose-response curve [9] | normalized area under the dose-response curve (L363 (cancer type: MM)) | normalized area under the dose-response curve [10] | normalized area under the dose-response curve (AMO1 (cancer type: MM)) | normalized area under the dose-response curve [11] | normalized area under the dose-response curve [12] | normalized area under the dose-response curve (U266 (cancer type: MM)) | normalized area under the dose-response curve [13] | normalized area under the dose-response curve (LP1 (cancer type: MM)) | normalized area under the dose-response curve [14] | normalized area under the dose-response curve (KMS11 (cancer type: MM)) | normalized area under the dose-response curve [15] | normalized area under the dose-response curve [16] | normalized area under the dose-response curve (XG2 (cancer type: MM)) | normalized area under the dose-response curve (KMS18 (cancer type: MM)) | normalized area under the dose-response curve (SKMM2 (cancer type: MM)) | normalized area under the dose-response curve (My-La (cancer type: TCL)) | normalized area under the dose-response curve [17] | normalized area under the dose-response curve [18] | normalized area under the dose-response curve [19] | normalized area under the dose-response curve [20] | normalized area under the dose-response curve (EJM (cancer type: MM)) | normalized area under the dose-response curve (MM1.S (cancer type: MM)) | normalized area under the dose-response curve [21] | normalized area under the dose-response curve [22]
1 | Cc1ccc(F)c(NC(=O)Nc2ccc(-c3cccc4[nH]nc(N)c34)cc2)c1 [Linifanib] | 0.468 | 0.57 | 0.55 | 0.587 | 0.603 | 0.58 | 0.5 | 0.63 | 0.721 | 0.441 | 0.627 | 0.33 | 0.709 | 0.73 | 0.519 | 0.983 | 0.605 | 0.861 | 0.567 | 0.59 | 0.25 | 0.549 | 0.165 | 0.348 | 0.987 | 0.65 | 0.995 | 0.651 | 0.547 | 0.56 | 0.667 | 0.852 | 0.722 | 0.981 | 0.646 | 0.735 | 0.526 | 0.55 | 0.955 | 0.759
2 | N[C@@H](Cc1ccc(N(CCCl)CCCl)cc1)C(=O)O [Melphalan hydrochloride] | 0.643 | 0.936 | 0.926 | 0.896 | 0.874 | 0.8 | 0.73 | 0.787 | 0.973 | 0.919 | 0.778 | 0.573 | 0.791 | 0.86 | 0.41 | 0.858 | 0.73 | 0.798 | 0.722 | 0.77 | 0.742 | 0.885 | 0.897 | 0.85 | 1.01 | 0.826 | 0.94 | 0.907 | 0.776 | 0.842 | 0.892 | 0.892 | 0.758 | 0.936 | 0.95 | 0.818 | 0.685 | 0.79 | 0.905 | 0.788
3 | COc1nc(N)nc2c1ncn2[C@@H]1O[C@H](CO)[C@@H](O)[C@@H]1O [Nelarabine] | 0.98 | 0.946 | 0.928 | 0.978 | 0.987 | 0.85 | 0.94 | 0.913 | 0.902 | 1.01 | 0.779 | 0.88 | 0.861 | 0.92 | 0.858 | 1.01 | 0.92 | 0.99 | 0.948 | 0.95 | 0.883 | 0.985 | 0.915 | 0.94 | 0.993 | 0.992 | 0.996 | 0.972 | 0.935 | 0.973 | 0.96 | 0.929 | 0.951 | 0.937 | 0.924 | 0.978 | 0.889 | 0.91 | 0.989 | 0.921
4 | Cc1cn(-c2cc(NC(=O)c3ccc(C)c(Nc4nccc(-c5cccnc5)n4)c3)cc(C(F)(F)F)c2)cn1 [Nilotinib] | 0.39 | 0.953 | 0.863 | 0.443 | 0.512 | 0.81 | 0.88 | 0.944 | 0.929 | 0.838 | 0.798 | 0.604 | 0.948 | 0.88 | 0.851 | 0.946 | 0.634 | 0.953 | 0.693 | 0.86 | 0.741 | 0.826 | 0.89 | 0.908 | 0.841 | 0.736 | 0.948 | 0.896 | 0.959 | 0.865 | 0.889 | 0.978 | 0.695 | 0.91 | 0.871 | 0.942 | 0.904 | 0.78 | 0.918 | 0.94
5 | COC(=O)c1ccc2c(c1)NC(=O)/C2=C(\Nc1ccc(N(C)C(=O)CN2CCN(C)CC2)cc1)c1ccccc1 [Nintedanib] | 0.846 | 0.957 | 0.929 | 0.844 | 0.979 | 0.84 | 0.97 | 0.883 | 0.828 | 0.911 | 0.92 | 0.835 | 0.764 | 0.94 | 0.839 | 0.992 | 0.798 | 0.942 | 0.801 | 0.87 | 0.815 | 0.941 | 0.791 | 0.828 | 0.906 | 0.723 | 0.98 | 0.862 | 0.764 | 0.934 | 0.943 | 0.902 | 0.737 | 0.966 | 0.87 | 0.956 | 0.784 | 0.79 | 0.919 | 0.933
6 | C=CC(=O)Nc1cc(Nc2nccc(-c3cn(C)c4ccccc34)n2)c(OC)cc1N(C)CCN(C)C [Osimertinib] | 0.399 | 0.535 | 0.551 | 0.489 | 0.439 | 0.45 | 0.42 | 0.473 | 0.521 | 0.582 | 0.445 | 0.337 | 0.532 | 0.46 | 0.463 | 0.931 | 0.466 | 0.834 | 0.423 | 0.47 | 0.597 | 0.451 | 0.429 | 0.406 | 0.872 | 0.417 | 0.937 | 0.574 | 0.422 | 0.442 | 0.506 | 0.769 | 0.476 | 0.925 | 0.53 | 0.601 | 0.429 | 0.44 | 0.911 | 0.626
7 | CC(=O)O[C@H]1C(=O)[C@@]2(C)[C@H]([C@H](OC(=O)c3ccccc3)[C@]3(O)C[C@H](OC(=O)[C@H](O)[C@@H](NC(=O)c4ccccc4)c4ccccc4)C(C)=C1C3(C)C)[C@]1(OC(C)=O)CO[C@@H]1C[C@@H]2O [Paclitaxel] | 0.666 | 0.478 | 0.595 | 0.89 | 0.993 | 0.58 | 0.86 | 0.329 | 0.417 | 0.703 | 0.635 | 0.787 | 0.767 | 0.85 | 0.611 | 0.582 | 0.726 | 0.544 | 0.595 | 0.49 | 0.78 | 0.51 | 0.781 | 0.865 | 0.652 | 0.853 | 0.354 | 0.454 | 0.542 | 0.702 | 0.98 | 0.896 | 0.675 | 0.642 | 0.698 | 0.556 | 0.751 | 0.52 | 0.793 | 0.3
8 | CC(=O)c1c(C)c2cnc(Nc3ccc(N4CCNCC4)cn3)nc2n(C2CCCC2)c1=O [Palbociclib] | 0.561 | 0.746 | 0.9 | 0.852 | 0.694 | 0.77 | 0.82 | 0.712 | 0.821 | 0.716 | 0.776 | 0.751 | 0.769 | 0.74 | 0.705 | 0.791 | 0.743 | 0.876 | 0.529 | 0.91 | 0.65 | 0.688 | 0.636 | 0.794 | 0.727 | 0.79 | 0.889 | 0.837 | 0.656 | 0.81 | 0.782 | 0.745 | 0.851 | 0.897 | 0.932 | 0.655 | 0.733 | 0.69 | 0.771 | 0.656
